Assay results: patent publication US9896512B2, “Antitumor peptide derived from a complementarity determining region of a humanized monoclonal antibody to NAP12B transporter” (Recepta Biopharma S.A., priority 2010, dated 2018)
“Also recorded” adds a separate entry of the source. No end group written: not given here.

Tests used:
[1] = system: A2058 human melanoma cells; test: Cell adherence, trypsin-EDTA detachment, Trypan blue count; assay type: cell-based; settings: 24 hours; FIGS. 2A-2D (SKBR3 and A2058), cell line not given; read-out: peptide concentration at which 50% of cells were trypsin-EDTA resistant
Method: (§1) SKBR3 cells (1×10^4) were cultivated in 96-well plates and incubated with RB9 (SEQ ID NO: 8) and RB10 (SEQ ID NO: 9). After 18 hours incubation, viable cells detached with trypsin/EDTA were counted using Trypan blue exclusion staining. Assays were performed in triplicate in two independent experiments. The A2058 human melanoma cells (1×10^4) were incubated for 4 hours at 37° C. in a humidified chamber with 5% CO2. Fresh media containing different peptide concentrations of RB9 and RB10 ranging from 0 to 1 mM (i.e., 0, 0.25, 0.5 and 1 mM) was added to the wells and incubated for 24 hours. The media was then aspirated, cells were detached with 30 μl/well of trypsin-EDTA for five minutes at 37° C. and viable cells were counted in a Neubauer chamber using Trypan blue. As shown in FIGS. 2A-2D, 50% of cells were trypsin-EDTA resistant at 630 and 610 μM RB9 and RB10, respectively.

[2] = system: B16F10-Nex2 melanoma cells; test: Cell migration, wound healing assay; assay type: cell-based, murine; settings: for inhibition of cell migration (words): peptide 500 μM, 24 hours after wounding
Method: (§2) For the migration studies, 5×10^5 or 10^6 cells were distributed on 6-well plates and let them to adhere for 2 hours at 37° C./5% CO2. The culture medium was changed and the peptide was added at 500 μM overnight. The cell monolayer was “wounded” with a P1000 tip and incubated for 24 hours. Images of untreated cells (control) and peptide treated cells were captured with a JENOPTIK camera. Cell numbers (nuclei) were determined using the Pixcavator software version 5.0.
Viable B16F10-Nex2 cells (5×105)/well were distributed on a 6-well culture plate and incubated overnight at 37° C. in a humidified chamber with 5% CO2. A P1000 tip was used for wounding the cell monolayer and the image was immediately captured (0 hour) using a camera (Jenoptik) with the software Progres 2.8. After 24 hours a new image of the same field was obtained and recorded (24 hours).
Viable B16F10-Nex2 cells (3×10^5)/well were distributed in a 12-well culture plate and incubated for 4 hours at 37° C. in a humidified chamber with 5% CO2. Fresh medium containing RB10 (SEQ ID NO: 9) at different concentrations was added to the wells and incubated again for 4 hours. The monolayer wounding was performed as described above in Example 12, and images obtained accordingly. After 24 hours a new image in the same field was obtained and recorded (24 hours). […] Magnification ×100.

OVCAR-3 cells = test: Effect on ovarian carcinoma cells (trypsin-EDTA detachment, Trypan blue or MTT); assay type: cell-based, human; settings: for cytotoxicity / activity against OVCAR-3 cells: 0 to 1 mM, 24 hours, Trypan blue / MTT; for hyper-adherent effect (detachment with trypsin/EDTA): up to 1 mM peptide
Method: (§3) Viable OVCAR-3 cells (1×10^4)/well were distributed on a 96-well culture plate and incubated for […] with different concentrations of RB9 (SEQ ID NO: 8) ranging from 0 to 1 mM for 24 hours. Cells were detached with 30 μl/well of trypsin-EDTA for five minutes at 37° C. and counted in a Neubauer chamber with Trypan blue or estimated by the colorimetric MTT assay.

tumor cells = test: Cell adherence assay (detachment with trypsin/EDTA); assay type: cell-based; settings: for adherence at peptide concentration of 1 mM (not suspended by trypsin/EDTA): 1 mM peptide; for adherence of tumor cells to the substrate: 96-well plates, RPMI 10% FCS, seen in B16F10-Nex2.1, U87MG, A5028 melanoma, SKBR3, SiHa, HCT cells
Method: At a lower dose, cells would be detached with trypsin/EDTA at rates inversely proportional to the peptide concentration. Conceivably, peptides RB9 and RB10 affected the cytoskeleton dynamics of cells, thus signaling increased cell adhesion.
B16F10-Nex2.1 cells (5×10^3) and U87-MG cells (1×10^4) were cultivated in 96-well plates and incubated with different concentrations of RB9 (SEQ ID NO: 8) and RB10 (SEQ ID NO: 9) from 0.01 to 1 mM (i.e., 0.01, 0.05, 0.1, 0.25, 0.7, 0.8 and 1 mM of RB9 and RB10 for B16F10-Nex 2.1 cells; and 0.25, 0.5, 0.75 and 1 mM of RB9 and RB10 for U87-MG cells). After 18 hours incubation, viable cells detached with trypsin/EDTA were counted using Trypan blue exclusion staining. All assays were performed in triplicate in two independent experiments.
as §1

[3] = system: human glioblastoma U87 cells; test: Cell migration, wound healing assay; assay type: cell-based; settings: peptide 500 μM, 24 hours
Method: as §2

[4] = system: human cervix cancer SiHa cells; test: Cell migration, wound healing assay; assay type: cell-based; settings: peptide 500 μM, 24 hours
Method: as §2

HL-60 cells = test: Cell viability, Trypan blue count or MTT assay; assay type: cell-based, human; settings: for cytotoxicity to HL-60 cells: cells growing in suspension, Trypan blue / MTT
Method: as §3, with “HL-60” for “OVCAR-3”, “Cell viability was directly measured by counting” for “Cells were detached with 30 μl/well of trypsin-EDTA for five minutes at 37° C. and counted”

SiHa cells = test: Detection of peptide-treated hyper adherent cells (MTT after trypsin-EDTA); assay type: cell-based, human; settings: 500 μM peptide, 24 hours
Method: Viable SiHa cells (1×10^4)/well were distributed on a 96-well culture plate and incubated for 4 hours at 37° C. in a humidified chamber with 5% CO2. Fresh medium containing different peptide concentrations of RB9 (SEQ ID NO: 8) and RB10 (SEQ ID NO: 9) ranging from 0 to 1 mM (i.e., 0, 0.25, 0.5 and 1 mM) was added to the wells and incubated for 24 hours. The medium was then aspirated; cells were detached with 30 μl/well of trypsin-EDTA for five minutes at 37° C. and gently washed with PBS. Hyper-adherent cells were incubated for 4 hours with 0.5 mg/mL of MTT [3-(4,5-dimethylthiazol-2-yl)-2,5-diphenyltetrazolium bromide] in fresh medium and formazan crystals were solubilized adding 1 volume of 10% SDS solution overnight. Intensity was measured using a plate reader at 570 nm.

Row | Molecule | EC50 [1] | inhibition of cell migration (words) [2] | cytotoxicity / activity against OVCAR-3 cells (OVCAR-3 cells) | hyper-adherent effect (detachment with trypsin/EDTA) (OVCAR-3 cells) | adherence at peptide concentration of 1 mM (not suspended by trypsin/EDTA) (tumor cells) | adherence of tumor cells to the substrate (tumor cells) | inhibition of cell migration [3] | inhibition of cell migration [4] | EC50 (HL-60 cells; 24 hours, Trypan blue and MTT, read-out: concentration reducing cell viability by 50% (ED50)) | cytotoxicity to HL-60 cells (HL-60 cells) | tumor cells resistant to trypsinization (SiHa cells) | inhibition of cell migration ([2]; 30 μM, 24 hours) | inhibition of cell migration ([2]; 500 μM, 24 hours) | migration inhibition, dose dependence ([2]; different concentrations, 24 hours)
1 | C[C@@H]1NC(=O)[C@H](CCCNC(=N)N)NC(=O)[C@H](C)NC(=O)[C@H]([C@@H](C)O)NC(=O)[C@H](CCC(=O)O)NC(=O)CNC(=O)[C@H](CCCNC(=N)N)NC(=O)[C@H](C)NC(=O)[C@@H](N)CSSC[C@@H](C(N)=O)NC(=O)CNC(=O)[C@H](CCC(N)=O)NC(=O)CNC(=O)[C@H](Cc2c[nH]c3ccccc23)NC(=O)[C@H](Cc2ccc(O)cc2)NC(=O)[C@H](C)NC(=O)[C@H](Cc2ccccc2)NC(=O)[C@H]([C@@H](C)O)NC1=O [RB9, CARGETARATFAYWGQGC-NH2] | 630 µM | Total inhibition; also recorded: complete inhibition | inactive; also recorded: no significant decrease in viability; also recorded: lack of cytotoxicity | normally detached; also recorded: most cells were unaffected | hyper-adherence | dose dependent increase of adherence | poorly; also recorded: partial inhibition | no effect; also recorded: non-inhibition | 920 to 930 µM | mildly cytotoxic; also recorded: mild cytotoxicity | 30% |  |  | 
2 | CARGETARATFAYWGQG-NH2 [RB10, CARGETARATFAYWGQG-NH2] | 610 µM | Total inhibition; also recorded: inhibited; also recorded: complete inhibition | inactive | normally detached | hyper-adherence | dose dependent increase of adherence | partial migration inhibition | complete or almost complete inhibition |  | mildly cytotoxic | 80% | more than 30% | 100% | dose-dependent inhibition
